Data published in article PMC11768664 (Viruses, 2024).
pIC50: −log10 of the molar value. Converted amounts (≈) assume the structure as drawn. “And” between values parts separate entries of the source, which are not always exact repeats. Equal entries are not always repeated. Where two headings read alike, the source gives them in different places.

Key:
[1] = tested on: W12E 20850 cervical precancer cells; assay: Growth inhibition MTT assay on W12 clone 20850 (episomal HPV16); type: cell-based; details: for IC50: 120 h, read-out: IC50, growth inhibitory activity on W12 clone 20850
[2] = tested on: W12I 20861 cervical precancer cells; assay: Growth inhibition MTT assay on W12 clone 20861 (type 2 integrant); type: cell-based; details: 120 h, read-out: IC50, growth inhibitory activity on W12 clone 20861
[3] = tested on: W12I 20822 cervical precancer cells; assay: Growth inhibition MTT assay on W12 clone 20822 (type 1 integrant); type: cell-based; details: for IC50: 120 h, read-out: IC50, growth inhibitory activity on W12 clone 20822
[4] = tested on: W12I 20862 cervical precancer cells; assay: Growth inhibition MTT assay on W12 clone 20862 (type 2 integrant); type: cell-based; details: for IC50: 120 h, read-out: IC50, growth inhibitory activity on W12 clone 20862
[5] = tested on: HeLa human cervical cancer cells; assay: Growth inhibition (proliferation) MTT assay on HeLa cells; type: cell-based; details: for IC50: Homo sapiens
[6] = tested on: HT29 colon cancer cells; assay: Growth inhibition (proliferation) MTT assay on HT29 cells; type: cell-based; details: Homo sapiens
[7] = tested on: cell cycle genes in HeLa cells; assay: Gene expression analysis of HeLa cells treated with curcumin; type: cell-based, human; details: curcumin 32 µM, 8 h
[8] = molecular target: Na^+/K^+-ATPase; parameters: method as in earlier work; details: read-out: IC50, inhibition of the activity of the Na+/K+-ATPase, cited from earlier work
[9] = tested on: J2 3T3 mouse embryo fibroblasts (feeder cells); assay: Growth inhibition MTT assay on 3T3 feeder cells; type: cell-based; details: NIH3T3, read-out: IC50, growth inhibitory activity on 3T3 feeder cells
[10] = tested on: HeLa human cervical cancer cells; assay: Combination growth inhibition assay and Combination Index on HeLa cells; type: cell-based
[11] = MTT, 96 h (Figure 1 legend; table footnote prints 120 h), read-out: IC50, growth inhibitory activity on HeLa cells
[12] = HT-29, HT29, MTT, 96 h (Figure 1 legend; table footnote prints 120 h), read-out: IC50, growth inhibitory activity on HT29 cells

COC1=CC(=O)O[C@@H](CCc2ccc3c(c2)OCO3)C1 [DHM, dihydromethysticin]
IC50 [1]: 24.7 µg/mL (≈ 89.4 µM)
IC50 [2]: 12.4 µg/mL (≈ 44.9 µM)
IC50 [3]: 10.2 µg/mL
IC50 [4]: 12.8 µg/mL

CC(=O)O[C@@H]1C[C@@]23C[C@@]24CC[C@H](O[C@@H]2OC[C@@H](O)[C@H](O)[C@H]2O)C(C)(C)[C@@H]4CC[C@H]3[C@]2(C)C[C@@H]3O[C@]4(C[C@@H](C)[C@@H]3[C@@]12C)O[C@H](O)[C@@]1(C)O[C@@H]41 [actein]
IC50 [1]: 41.7 µg/mL (≈ 61.6 µM)
IC50 [2]: 37.9 µg/mL (≈ 56 µM)
IC50 [3]: 55.7 µg/mL
IC50 [4]: 36.3 µg/mL

CC(C)c1cc2c(c(O)c1O)[C@@]1(C(=O)O)CCCC(C)(C)[C@@H]1CC2 [carnosic acid]
IC50 [5, 11]: 2.03 µg/mL (≈ 6.11 µM)
IC50 [1]: 13 µg/mL (≈ 39.1 µM)
IC50 [2]: 14.1 µg/mL (≈ 42.4 µM)
IC50 [3]: 10.7 µg/mL
IC50 [4]: 10 µg/mL
IC50 [6, 12]: 2.13 µg/mL (≈ 6.41 µM)

COc1cc(/C=C/C(=O)CC(=O)/C=C/c2ccc(O)c(OC)c2)ccc1O [curcumin]
Ratio, ATM (NM_000051) [7]: 15.43
Ratio, CDC6 (NM_001254) [7]: 2.68
Ratio, CDC20 (NM_016263) [7]: 19.4
Ratio, CDKN1B (NM_004064) [7]: 2.77
Ratio, E2F4 (NM_001950) [7]: 2.37
Ratio, E2F5 (NM_001951) [7]: 2.94
Ratio, GSK3B (NM_002093) [7]: 2.09
Ratio, ORC1L (NM_004153) [7]: 3.10
Ratio, PLK1 (NM_005030) [7]: 2.01
Ratio, SKP2 (NM_005983) [7]: 5.03
Ratio, SMAD4 (NM_005359) [7]: 3.49
Ratio, SMC3 (NM_005445) [7]: −3.89
Ratio, STAG1 (NM_005862) [7]: 2.37
Ratio, STAG2 (NM_001042749) [7]: −3.56
Ratio, ZBTB17 (NM_003443) [7]: 2.48
Ratio, ATM (NM_138292) ([7]; text prints fold): 36 and 35.94
pIC50 ([8]; as previously described): 5.70

C[C@H]1O[C@@H](O[C@H]2[C@@H](O)C[C@H](O[C@H]3[C@@H](O)C[C@H](O[C@H]4CC[C@@]5(C)[C@H](CC[C@@H]6[C@@H]5CC[C@]5(C)[C@@H](C7=CC(=O)OC7)CC[C@]65O)C4)O[C@@H]3C)O[C@@H]2C)C[C@H](O)[C@@H]1O [digitoxin, reference compound]
IC50 ([5]; 96 h, read-out: Growth inhibitory Activity (ug/mL), HeLa Cells): 0.12 µg/mL (≈ 0.157 µM)
pIC50 ([8]; comparator, unit inferred): > 7.00
IC50 ([6]; HT-29, 96 h, read-out: Growth inhibitory Activity (ug/mL), HT29 Cells): 0.13 µg/mL (≈ 0.17 µM)

C[C@H]1O[C@@H](O[C@H]2[C@@H](O)C[C@H](O[C@H]3[C@@H](O)C[C@H](O[C@H]4CC[C@@]5(C)[C@H](CC[C@@H]6[C@@H]5C[C@@H](O)[C@]5(C)[C@@H](C7=CC(=O)OC7)CC[C@]65O)C4)O[C@@H]3C)O[C@@H]2C)C[C@H](O)[C@@H]1O [digoxin, reference compound]
IC50 ([5]; read-out: IC50, growth inhibitory activity on HeLa cells): 0.12 µg/mL (≈ 0.154 µM)
IC50 [9]: > 10 µg/mL
IC50 [1]: > 0.025 µg/mL
IC50 [2]: 0.0037 µg/mL (≈ 0.00474 µM)
IC50 [3]: 0.008 µg/mL
IC50 [4]: 0.0245 µg/mL
IC50 ([6]; HT-29, read-out: IC50, growth inhibitory activity on HT29 cells): 0.13 µg/mL (≈ 0.166 µM)

C(=Cc1ccccc1)c1ccccc1 [stilbene]
IC50, growth inhibitory activity on HeLa cells ([5]; MTT, 96 h (Figure 1 legend; table footnote prints 120 h)): greater than 100 µg/mL

Cc1coc2c1C(=O)C(=O)c1c-2ccc2c1CCCC2(C)C [tanshinone IIA]
IC50 ([5]; Figure 1C, 96 h, MTT, read-out: Growth inhibitory Activity (ug/mL), HeLa Cells): 1.4 µg/mL (≈ 4.76 µM)
IC50 [5, 11]: 1.33 µg/mL (≈ 4.52 µM)
IC50 ([1]; episomal, MTT): 2.3 µg/mL (≈ 7.81 µM)
low concentration with significant activity on 20850 (episomal) cells ([1]; p = 0.0058): 2.5 µM
percentage of viable cells ([10]; tanshinone IIA 0.2 μM alone, 90% curcuminoids experiment): 134%
percent viable cells ([10]; tanshinone IIA 0.2 µΜ alone, 95% curcuminoids experiment): 91.96%
IC50 [2]: 1.4 µg/mL (≈ 4.76 µM)
IC50 ([3]; type 1 integrant, MTT): 2 µg/mL
pIC50 ([3]; value quoted with the RT-PCR results, read-out: IC50, relative growth inhibitory effect on 20822): 5.68
IC50 ([4]; type 2 integrant, MTT): 3.1 µg/mL
pIC50 ([4]; value quoted with the RT-PCR results, read-out: IC50, relative growth inhibitory effect on 20862): 5.55
IC50 ([6]; HT-29, Figure 1C, 96 h, MTT, read-out: Growth inhibitory Activity (ug/mL), HT29 Cells): 1.3 µg/mL (≈ 4.42 µM)
IC50 [6, 12]: 1.27 µg/mL (≈ 4.31 µM)

lambda carrageenan
activity on 20850 cells, in words ([1]; after sonication, inverse pattern in a repeat experiment): highly active
